Results on four molecules are retold here after publication PMC2556205 (Journal of medicinal chemistry, 2008).

The target in series [1] is T1, purified recombinant rat FAAH (Rattus norvegicus, UniProt P97612).
T1 sequence (P97612 30-579 limits assumed): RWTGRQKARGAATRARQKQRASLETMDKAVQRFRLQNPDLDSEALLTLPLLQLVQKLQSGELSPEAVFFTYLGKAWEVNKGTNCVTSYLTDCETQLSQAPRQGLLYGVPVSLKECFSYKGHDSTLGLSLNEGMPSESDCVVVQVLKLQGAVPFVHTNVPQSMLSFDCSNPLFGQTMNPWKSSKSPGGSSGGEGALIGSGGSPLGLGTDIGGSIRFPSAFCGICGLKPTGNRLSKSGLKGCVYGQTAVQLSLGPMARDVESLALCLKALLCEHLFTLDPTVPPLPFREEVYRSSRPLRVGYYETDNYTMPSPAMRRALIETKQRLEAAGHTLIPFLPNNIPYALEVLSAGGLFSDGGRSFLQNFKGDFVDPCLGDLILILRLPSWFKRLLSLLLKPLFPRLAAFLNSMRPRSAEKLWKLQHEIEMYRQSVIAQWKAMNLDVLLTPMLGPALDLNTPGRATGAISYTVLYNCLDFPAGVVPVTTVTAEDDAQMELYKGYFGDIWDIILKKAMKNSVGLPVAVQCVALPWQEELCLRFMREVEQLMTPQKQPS
Kind of series: FAAH inhibition assay, 14C-oleamide hydrolysis, Dixon plot. It counts as biochemical. The following applies: for FAAH inhibition (in words): pH 9 assay conditions.

Series [2] relates to spinal nerve ligation (SNL) model of neuropathic pain. The settings on record: 10–20 mg/kg, i.p.; cited from earlier work.
The subject of a further series is P450 2D6. The following applies: cited from earlier work.
For series [3] the following is noted: Cerep assay profiling; cited from earlier work.
Another series deals with tail flick assay. The settings on record: 10–20 mg/kg, i.p.; cited from earlier work.
In another series the test system is FAAH knockout mice. The following applies: cited from earlier work.
Series [4] has as its system formalin test of noxious chemical pain. The settings on record: 1st and 2nd phase; 10–20 mg/kg, i.p.; cited from earlier work.
The subject of series [5] is mild thermal injury (MTI) model of peripheral pain. The settings on record: 10–20 mg/kg, i.p.; cited from earlier work.
Series [6] concerns vanilloid (TRP) receptors. The following applies: cited from earlier work.
The next series relates to hot plate assay. The settings on record: 10–20 mg/kg, i.p.; cited from earlier work.
Series [7] concerns cannabinoid (CB1) receptor. The following applies: cited from earlier work.
The test system of the next series is P450 3A4. The settings on record: cited from earlier work.
In series [8] the test system is endogenous anandamide levels. The settings on record: cited from earlier work.
Series [9] concerns the target T1, purified recombinant rat FAAH. The following applies: cited from earlier work.
The subject of another series is P450 2C9. The settings on record: cited from earlier work.
The subject of series [10] is human ether-a-go-go related gene (hERG). The settings on record: cited from earlier work.
Series [11] concerns cannabinoid (CB2) receptor. The following applies: cited from earlier work.

Turning to `Cn1nnc(C(=O)CCCCCCc2ccccc2)n1` [19a], the “FAAH inhibition (in words)” value in series [1] is given as “displayed FAAH inhibition at levels consistent with this series”.

For the molecule `Cn1nnnc1C(=O)CCCCCCc1ccccc1` [19b], in series [1], the “FAAH inhibition (in words)” value is listed as “displayed FAAH inhibition at levels consistent with this series”.

For `O=C(CCCCCCc1ccccc1)c1ncc(-c2ccccn2)o1` [compound 2], in series [2], the “analgesic activity, SNL model” value is given as “analgesic activity”. In addition, the “inhibition of P450 2D6” value in the series with P450 2D6 is listed as “does not significantly inhibit”. Besides, in [3], the offsite target activity entry is given as “lack significant offsite target activity”. In the series on tail flick assay, the “analgesic activity, tail flick assay” value is recorded as “analgesic activity”. The “analgesia in FAAH knockout mice” value in the series with FAAH knockout mice is given as “ineffective at promoting analgesia”. The “analgesic activity, formalin test” value in series [4] is given as “analgesic activity”. For the same molecule, in series [5], the “analgesic activity, MTI model” value is recorded as “analgesic activity”. Further, the “vanilloid (TRP) receptor binding” value in [6] is reported as “does not bind”. In addition, the “analgesic activity, hot plate assay” value in the series with hot plate assay is “analgesic activity”. The CB1 receptor binding result in series [7] was “does not bind”. Besides, in the series on P450 3A4, the “inhibition of P450 3A4” value was “does not significantly inhibit”. The endogenous anandamide levels result in series [8] is reported as “increases endogenous anandamide levels”. Also, the “mode of inhibition (Lineweaver–Burk analysis)” value in [9] is listed as “reversible, competitive inhibition”. Also, the “inhibition of P450 2C9” value in the series on P450 2C9 was “does not significantly inhibit”. In addition, the “inhibition of hERG” value in [10] is on record as “does not significantly inhibit”. Moreover, in [11], the CB2 receptor binding entry is “does not bind”.

In the case of `O=C(CCCCCCc1ccccc1)c1cnc(-c2ccccn2)o1` [compound 6], the “loss of FAAH inhibition” value in series [1] (oxazole isomer, location of the oxazole nitrogen atom switched, compared with 2) was over 4000 fold.
